One test relates to human TSLP mRNA. Particulars: human airway epithelial cell lines; cited from earlier work.
The subject of test [1] is TSLP production of KCMH-1 cell. In words: TSLP production of KCMH-1 cells, TSLP in culture supernatant quantified by ELISA. The settings on record: BAY11-7082 10 μM, 24 hours, ELISA (FIG. 5). In kind it is cell-based, mouse. How it is done:
The KCMH-1 cells were suspended at a concentration of 1×10^5 cells/ml in an MEMU medium containing 10% FBS. 0.5 ml of the cell suspension was inoculated to each well of a 24-well cluster dish. 24 hours later, the medium was removed, and the cells were washed with phosphate-buffered saline (PBS). Then, 0.5 ml of an MEMU medium containing 10% FBS and each concentration of dexamethasone (0.1 or 1 μM) or FK506 ([…]) was added to the cells. 24 hours later, the culture solution was collected, and TSLP in the supernatant was quantified by ELISA (FIG. 2).
The KCMH-1 cells were suspended at a concentration of 1×10^5 cells/ml in an MEMU medium containing 10% FBS. 0.5 ml of the cell suspension was inoculated to each well of a 24-well cluster dish. […] 24 hours later, the culture solution was collected, and TSLP in the supernatant was quantified by ELISA (FIG. 3).
The KCMH-1 cells were suspended at a concentration of 1×10^5 cells/ml in an MEMU medium containing 10% FBS. […] 24 hours later, the culture solution was collected, and TSLP in the supernatant was quantified by ELISA (FIG. 4).
The KCMH-1 cells were suspended at a concentration of 1×10^5 cells/ml in an MEMU medium containing 10% FBS. […] 24 hours later, the culture solution was collected, and TSLP in the supernatant was quantified by ELISA (FIG. 5).
A general note: In an ELISA, binding on a coated surface is turned into a signal by an enzyme label.

For `CC1=C(/C=C/C(C)=C\C=C\C(C)=C\C(=O)O)C(C)(C)CCC1` [9-cis-retinoic acid], the “expression of human TSLP mRNA by IL-1β” value in the test with human TSLP mRNA is recorded as “inhibits”.

For `Cc1ccc(S(=O)(=O)/C=C/C#N)cc1` [BAY11-7082], in test [1], the “TSLP production in the KCMH-1 cells” value is “partially inhibited”.

The values are drawn from US20130096028A1, “CELL CAPABLE OF EXPRESSING TSLP CONSTANTLY AND AT HIGH LEVEL, AND METHOD FOR SCREENING FOR TSLP MODULATOR UTILIZING THE CELL” (TOHOKU UNIVERSITY, priority 2010, published 2013).
